Assay results as given in PMC6185871, “Discovery of super soft-drug modulators of sphingosine-1-phosphate receptor 1” (Bioorganic & Medicinal Chemistry Letters, 2018).

How the values were obtained:
S1PR1 = target: T1, S1PR1 (Homo sapiens, UniProt P21453); assay: PathHunter CHO-K1 EDG1 β-Arrestin recruitment assay; type: cell-based
T1 construct: host or cells: CHO-K1 (PathHunter EDG1 β-Arrestin cell line)
Protocol: (§1) We selected human plasma stability as a model for human blood metabolism. […] S1PR1 activity was measured using a PathHunter β-Arrestin recruitment assay.[23]
[23] The PathHunter® CHO‐K1 EDG1 β‐Arrestin Cell Line (Discoverx) was used to assess agonist activity of the compounds. Briefly, compound at 5× desired concentration was added to cells and incubated at 37 °C for 90 min. Assay signal was generated through a single addition of PathHunter Detection reagent cocktail, followed by a one hour incubation at room temperature. Microplates were read following signal generation with a PerkinElmer Envision instrument for chemiluminescent signal detection. Percentage activity was calculated using the following formula: % Activity = 100% × (mean RLU of test sample − mean RLU of vehicle control)/(mean MAX control ligand − mean RLU of vehicle control).

[1] = Kinetic aqueous solubility by laser nephelometry; type: physicochemical
[2] = Chromatographic hydrophobicity index (CHI) logD by reverse-phase HPLC; type: physicochemical
in vitro = in vitro ADME, human; conditions: for half-life: human, plasma
Protocol: as §1

Human skin S9 stability = type: in vitro ADME; conditions: human skin S9 fraction, skin S9 over 180 mins in the presence of enzymatic cofactors
Source text: It may be that the esterases responsible for the metabolism of 12f are present in both human plasma and skin S9 fraction or that skin and plasma esterases have similar substrate affinities.

plaque psoriasis = system: plaque psoriasis; set-up: method as in PMID 25127208; conditions: oral, phase II clinical trial of psoriasis; cited from earlier work
[3] = system: Langerhans cells migrating to the lymph node; set-up: method as in PMID 19194476; conditions: mice, topical application; cited from earlier work
[4] = PathHunter β-Arrestin, n of 2, geometric mean, range in brackets

T1 sequence (P21453 whole entry): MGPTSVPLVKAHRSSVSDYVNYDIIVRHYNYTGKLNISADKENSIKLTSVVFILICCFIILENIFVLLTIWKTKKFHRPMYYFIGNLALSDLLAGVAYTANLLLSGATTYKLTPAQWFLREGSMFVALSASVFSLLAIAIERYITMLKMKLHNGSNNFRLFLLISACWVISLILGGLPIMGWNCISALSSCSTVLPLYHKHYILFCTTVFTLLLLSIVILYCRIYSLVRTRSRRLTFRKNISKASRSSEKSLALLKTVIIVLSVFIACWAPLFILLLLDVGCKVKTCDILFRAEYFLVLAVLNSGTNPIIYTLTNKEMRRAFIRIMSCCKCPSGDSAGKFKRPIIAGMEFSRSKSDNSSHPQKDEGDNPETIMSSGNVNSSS

SMILES	S1PR1 pIC50 (S1PR1; [4])	Kinetic solubility [1] [µM]	CHI logD [2]	half-life (in vitro) [h]	further results
CCC/N=C1\S/C(=C\c2ccc(C(=O)O)cc2)C(=O)N1c1ccccc1C [Compound 4a]	<6 (0)	163	1.0		
CCC/N=C1\S/C(=C\c2ccc(C(=O)OC)c(Cl)c2)C(=O)N1c1ccccc1C [Compound 5a]	8.6 (0.1)	39	>4.4	> 3	improvement in S1PR1 activity compared to 5b (S1PR1; compared to 5b): 100 fold
CCC/N=C1\S/C(=C\c2ccc(C(=O)OC)cc2)C(=O)N1c1ccccc1C [Compound 5b]	6.5 (0)	28	>4.4	> 3	
CCC/N=C1\S/C(=C\c2ccc(C(=O)OCCO)cc2)C(=O)N1c1ccccc1C [Compound 5c]	6.9 (0)		3.4	> 3	
CCC/N=C1\S/C(=C\c2ccc(C(=O)NCCO)cc2)C(=O)N1c1ccccc1C [Compound 5d]	7.0 (0)	>250	2.3	> 3	
CCC/N=C1\S/C(=C\c2ccc(OC[C@H](O)CO)c(Cl)c2)C(=O)N1c1ccccc1O [Compound 6]					IC50 (S1PR1; PathHunter β-Arrestin, n of 2, geometric mean, range in brackets, read-out: S1PR1 pIC50 (converted)): 12.6 nM
CCC/N=C1\S/C(=C\c2ccc(C(=O)O)cc2)C(=O)N1c1ccccc1O [Compound 11]				> 3	S1PR1 modulator activity (in words) (S1PR1): inactive
CCC/N=C1\S/C(=C\c2ccc(C(=O)NCC(=O)N(C)C)cc2)C(=O)N1c1ccccc1O [Compound 12a]			1.9	> 3	metabolism in human plasma stability assay (in words) (in vitro): lack of metabolism
CCC/N=C1\S/C(=C\c2ccc(C(=O)OCCCO)cc2)C(=O)N1c1ccccc1O [Compound 12b]		183	2.3	> 3	
CCC/N=C1\S/C(=C\c2ccc(C(=O)OCC(O)CO)cc2)C(=O)N1c1ccccc1O (stereo not drawn) [Compound 12c]		>250	1.8	> 3	
CCC/N=C1\S/C(=C\c2ccc(C(=O)OCCN3CCOCC3)cc2)C(=O)N1c1ccccc1O [Compound 12d]		117	3.0	3	half-life at 3 h (Human skin S9 stability): 2.53 h
CCC/N=C1\S/C(=C\c2ccc(C(=O)OCC3COC(=O)O3)cc2)C(=O)N1c1ccccc1O (stereo not drawn) [Compound 12e]		79	2.8	1.02	half-life at 3 h (Human skin S9 stability): 0.667 h; metabolism in human plasma stability assay (in words) (in vitro): did not show sufficient clearance
CCC/N=C1\S/C(=C\c2ccc(C(=O)OCc3oc(=O)oc3C)cc2)C(=O)N1c1ccccc1O [Compound 12f]		79	3.3	0.15	S1PR1 modulator activity (in words) (S1PR1): inactive; half-life at 3 h (Human skin S9 stability): 0.383 h; metabolism in human plasma stability assay (in words) (in vitro): rapidly degraded
CCC/N=C1\S/C(=C\c2ccc(CC(=O)OC)cc2)C(=O)N1c1ccccc1O [Compound 15a]			3.2	> 3	
CCC/N=C1\S/C(=C\c2ccc(CCC(=O)OC)cc2)C(=O)N1c1ccccc1O [Compound 15b]		79	3.5	> 3	
CCC/N=C1\S/C(=C\c2ccc(OC[C@H](O)CO)c(Cl)c2)C(=O)N1c1ccccc1C [Ponesimod, ponesimod, reference compound]	7.9 (0)	110	3.1	> 3	systemic side effects observed (plaque psoriasis): lymphopenia and transient bradycardia
CCCCCCCCc1ccc(CCC(N)(CO)CO)cc1 [fingolimod]					number of Langerhans cells migrating to the lymph node [3]: reduction
